# Test results from patent publication US20040048838A1, “Meiosis regulating compounds” (priority 1995, published 2004).
row,SMILES,melting point [°C]
1,CC(C)CCC[C@@H](C)[C@H]1CC=C2C3=C(CC[C@@]21C)[C@@]1(C)CC=CCC1CC3 (stereo partly drawn),104.7
2,C[C@H](CCC(=O)N(C)C)[C@H]1CC=C2C3=C(CC[C@@]21C)[C@@]1(C)CC[C@H](O)C(C)(C)[C@@H]1CC3,192 to 195
3,CC(C)CCC[C@@H](C)[C@H]1[C@@H](O)C[C@H]2C3=CC=C4C(C)(C)[C@@H](O)CC[C@]4(C)[C@H]3CC[C@]12C,171 to 173

# More lines, now with the values ahead:
row,melting point [°C],SMILES
1,148,C[C@@H](CI)CCC[C@@H](C)[C@H]1CC=C2C3=C(CC[C@@]21C)[C@@]1(C)CC[C@H](O)C(C)(C)[C@@H]1CC3
2,180 to 181,C[C@@H](CO)CCC[C@@H](C)[C@H]1CC=C2C3=C(CC[C@@]21C)[C@@]1(C)CC[C@H](O)C(C)(C)[C@@H]1CC3
3,145 to 145.5,C[C@@H](CCl)CCC[C@@H](C)[C@H]1CC=C2C3=C(CC[C@@]21C)[C@@]1(C)CC[C@H](O)C(C)(C)[C@@H]1CC3
